The results in this text go back to patent US7799791B2, “Tetrahydrofuro(3,2-B) pyrrol-3-one derivatives as inhibitors of cysteine proteinases” (Amura Therapeutics Limited, priority 2007, dated 2010).

Read-outs that look alike come from different tables or passages of the source. Some results are limits rather than exact numbers.

Data set [1] deals with T1, Human recombinant cathepsin K (Homo sapiens, UniProt P43235).
T1 construct: purchased B. Turk, Josef, Stefan Institute, Ljubljana, Slovenia
T1 sequence (P43235 115-329): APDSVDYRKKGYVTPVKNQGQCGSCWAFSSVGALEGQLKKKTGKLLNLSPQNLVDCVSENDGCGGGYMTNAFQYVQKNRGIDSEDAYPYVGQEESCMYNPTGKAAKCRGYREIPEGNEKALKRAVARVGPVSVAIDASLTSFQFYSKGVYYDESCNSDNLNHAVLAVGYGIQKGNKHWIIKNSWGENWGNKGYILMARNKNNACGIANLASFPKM
Briefly: In vitro cathepsin Ki inhibition measurements. Type of data set: biochemical. The procedure:
Stock solutions of substrate or inhibitor were made up to 10 mM in 100% dimethylsulfoxide (DMSO) (Rathburns, Glasgow, U.K.) and diluted as appropriately required. In all cases the DMSO concentration in the assays was maintained at less than 1% (vol./vol.). The equilibrium inhibition constants (Ki^ss) for each compound were measured under steady-state conditions monitoring enzyme activity as a function of inhibitor concentration. The values were calculated on the assumption of pure competitive behaviour (Cornish-Bowden, A. Fundamentals of enzyme kinetics Portland Press; 1995, 93-128.). Human recombinant cathepsin K (0.25 nM final; B. Turk, Josef, Stefan Institute, Ljubljana, Slovenia), was routinely assayed in 100 mM sodium acetate; pH 5.5 containing 1 mM EDTA, 10 mM L-cysteine and 1.8 μM Z-Leu-Arg-AMC ([S]=KM).
The apparent inhibition constant (Ki) for each compound was determined on the basis that inhibition was reversible and occurred by a pure-competitive mechanism. The Ki values were calculated, from the dependence of enzyme activity as a function of inhibitor concentration, by direct regression analysis (Prism v 3.02) using Equation 2 (Comish-Bowden, A., 1995.).
In situations where the apparent dissociation constant (Ki^app) approached the enzyme concentrations, the Ki^app values were calculated using a quadratic solution in the form described by Equation 3 (Morrison, J. F. Trends Biochem. Sci., 7, 102-105, 1982; Morrison, J. F. Biochim. Biophys. Acta. 185, 269-286, 1969; Stone, S. R. and Hofsteenge, J. Biochemistry, 25, 4622-4628, 1986).
Curves were fitted by non-linear regression analysis (Prism) using a fixed value for the enzyme concentration. Equation 4 was used to account for the substrate kinetics, where ‘Ki’ is the inhibition constant, ‘[So]’ is the initial substrate concentration and ‘KM^app’ is the apparent macroscopic binding (Michaelis) constant for the substrate (Morrison, 1982).

The nature of data set [2]: Plasma incubations (human plasma stability). The class given is in vitro ADME. The settings on record: 37° C., 25 μM, percent remaining at 1 hour.
Procedure: Human and rat plasma were purchased from Innovative Research Inc. (Southfield. Mich., USA). […] Aliquots were removed at 2 and 60 minutes and quenched with an equal volume of cold acetonitrile. After mixing vigorously, the precipitated protein matter was removed by filtration (Multiscreen Solvinert filter plates, Millipore, Bedford, Mass., USA) and the filtrate analysed by reverse phase HPLC with mass spectrometric detection, using single ion monitoring of the [M+H]^+ species. Metabolic turnover was determined by comparison of peak areas from the ion chromatograms of the parent compound at 2 and 60 minutes and expressed as percent remaining at 1 hour.
[3] abbreviates: prior art WO-A-02057270 examples, Table 2, read-out: Ki (nM) vs Human Cathepsin K.
Setting [4] is: Table 1, read-out: In vitro Ki (nM) vs Cath K.

For orientation: Ki means a dissociation constant, usually derived from enzyme kinetics or from competition with a known ligand. Regarding “N-((S)-4-methyl-1-oxo-1-((3aS,6aR)-3-oxodihydro-2H-furo[3,2-b]pyrrol-4(5H,6H,6aH)-yl)pentan-2-yl)-4-(2-(4-methylpiperazin-1-yl)thiazol-4-yl)benzamide [Example 3]”, in data set [1] (setting [3]), the inhibition constant Ki was > 4000 nM.
In the case of `CN1CCN(c2nc(-c3ccc(C(=O)N[C@H](C(=O)N4CC[C@H]5OCC(=O)[C@H]54)C4CCCC4)cc3)cs2)CC1` [Example 5, N-((S)-1-cyclopentyl-2-oxo-2-((3aS,6aR)-3-oxodihydro-2H-furo[3,2-b]pyrrol-4(5H,6H,6aH)-yl)-2-oxoethyl)-4-(2-(4-methylpiperazin-1-yl)thiazol-4-yl)benzamide], in data set [2], the “Human Plasma Stability % rem. @ 1 h” value came out at 82.5%. In addition, in data set [1] (setting [4]), the inhibitory constant (Ki) worked out at 1.3 nM.
In the case of “N-((S)-1-cyclopentyl-2-((3aS,6R,6aS)-6-methoxy-3-oxodihydro-2H-furo[3,2-b]pyrrol-4(5H,6H,6aH)-yl)-2-oxoethyl)-4-(2-(4-methylpiperazin-1-yl)thiazol-4-yl)benzamide [Example 2]”, the Ki in data set [1] (setting [3]) was > 50000 nM.
As to `CO[C@@H]1CN(C(=O)[C@@H](NC(=O)c2ccc(-c3csc(N4CCN(C)CC4)n3)cc2)C2CCCC2)[C@@H]2C(=O)CO[C@@H]21` [Example 2, N-((S)-1-cyclopentyl-2-((3aS,6R,6aS)-6-methoxy-3-oxodihydro-2H-furo[3,2-b]pyrrol-4(5H,6H,6aH)-yl)-2-oxoethyl)-4-(2-(4-methylpiperazin-1-yl)thiazol-4-yl)benzamide], in data set [2], the “Human Plasma Stability % rem. @ 1 h” value is given as 98.2%. Moreover, in data set [1] (setting [4]), the Ki came out at 1.9 nM.
On to `CN1CCN(c2nc(-c3ccc(C(=O)N[C@@H](CC(C)(C)C)C(=O)N4CC[C@H]5OCC(=O)[C@H]54)cc3)cs2)CC1` [Example 4, N-((S)-4,4-dimethyl-1-oxo-1-((3aS,6aR)-3-oxodihydro-2H-furo[3,2-b]pyrrol-4(5H,6H,6aH)-yl)pentan-2-yl)-4-(2-(4-methylpiperazin-1-yl)thiazol-4-yl)benzamide], for which, in data set [2], the “Human Plasma Stability % rem. @ 1 h” value is on record as 91.9%. Also, the Ki in data set [1] (setting [4]) is 1.7 nM.
The corresponding values for `CO[C@H]1CN(C(=O)[C@@H](NC(=O)c2ccc(-c3csc(N4CCN(C)CC4)n3)cc2)C2CCCC2)[C@@H]2C(=O)CO[C@H]12` [Example 1, N-((S)-1-cyclopentyl-2-((3aS,6S,6aS)-6-methoxy-3-oxodihydro-2H-furo[3,2-b]pyrrol-4(5H,6H,6aH)-yl)-2-oxoethyl)-4-(2-(4-methylpiperazin-1-yl)thiazol-4-yl)benzamide] are 100% and 1.4 nM.
The like results for `CC(C)C[C@H](NC(=O)c1ccc(C(C)(C)C)cc1)C(=O)N1CC[C@H]2OCC(=O)[C@H]21` [Prior art compound 23, reference compound] were, in that order, 75% and 87.4 nM.
The like results for `CC(C)C[C@H](NC(=O)c1ccc(-c2csc(N3CCN(C)CC3)n2)cc1)C(=O)N1CC[C@H]2OCC(=O)[C@H]21` [Example 3, N-((S)-4-methyl-1-oxo-1-((3aS,6aR)-3-oxodihydro-2H-furo[3,2-b]pyrrol-4(5H,6H,6aH)-yl)pentan-2-yl)-4-(2-(4-methylpiperazin-1-yl)thiazol-4-yl)benzamide] were, in that order, 92.6% and 1.7 nM.
